# Read-outs that look alike come from different tables or passages of the source.
# How the values were obtained:
# Test in all cases: EUCAST micro broth dilution in vitro susceptibility testing
# Format in all cases: cell-based
# [1] = system: Fusarium Proliferatum (clinical sample)
# Method: (§1) The antifungal activity of a composition comprising Poly-(hexamethylene-guanidium chloride) and N,N-didecyl-N-methyl-poly(oxyethyl) ammonium propionate in a ratio of about 1:1 with respect to the molar amount was tested on wild type Aspergillus fumigatus (ATCC 204305) and azole resistant strains (TR 34/L98H and TR46/Y121F/T289A) as well as one clinical sample of Fusarium proliferatum and one clinical sample of Scedosporium Apiospermum was evaluated by means of EUCAST micro broth dilution1. This test method is currently recognized as the gold standard for in vitro susceptibility testing of filamenteus fungi. The test drug was diluted 1:30 in RPMI 1640 in order to obtain a max test concentration of 100 PPM. The test was performed three times for each test strain. The test drug was tested in the concentration range from 1-100 ppm.
# [2] = system: Aspergillus fumigatus TR46/Y121F/T289A (azole resistant)
# Method: as §1
# [3] = system: Aspergillus fumigatus TR34/L98H (azole resistant)
# Method: as §1
# [4] = system: Aspergillus fumigatus ATCC 204305 (wild type)
# Method: as §1
# [5] = system: Scedosporium Apiospermum (clinical sample)
# Method: as §1
# [6] = Aspergillus fumigatus TR46/Y121F/T289A
# [7] = Aspergillus fumigatus TR34/L98H
smiles,measurement,setting,value
C[C@@H]1C/C=C/C=C/C=C/C=C/[C@H](O[C@@H]2O[C@H](C)[C@@H](O)[C@H](N)[C@@H]2O)C[C@@H]2O[C@](O)(C[C@@H](O)C[C@H]3O[C@@H]3/C=C/C(=O)O1)C[C@H](O)[C@H]2C(=O)O [Natamycin],MIC,[1]; read-out: MIC,4 µg/mL
same,MIC,[2]; Aspergillus fumigatus,2 µg/mL
same,MIC,[3]; Aspergillus fumigatus,4 µg/mL
same,MIC,"[4]; ATCC204305, read-out: MIC",4 µg/mL
same,MIC,[5]; read-out: MIC,2 µg/mL
C[C@@H]1[C@H](O)[C@@H](C)/C=C/C=C/C=C/C=C/C=C/C=C/C=C/[C@H](O[C@@H]2O[C@H](C)[C@@H](O)[C@H](N)[C@@H]2O)C[C@@H]2O[C@](O)(C[C@@H](O)C[C@@H](O)[C@H](O)CC[C@@H](O)C[C@@H](O)CC(=O)O[C@H]1C)C[C@H](O)[C@H]2C(=O)O [Amphotericin B],MIC,[1],1 µg/mL
same,MIC,[2]; [6],0.25 µg/mL
same,MIC,[3]; [7],0.25 µg/mL
same,MIC,[4],0.25 µg/mL
same,MIC,[5],4 µg/mL
CCC(C)n1ncn(-c2ccc(N3CCN(c4ccc(OCC5COC(Cn6cncn6)(c6ccc(Cl)cc6Cl)O5)cc4)CC3)cc2)c1=O (stereo not shown) [Itraconazol],MIC,[1]; read-out: MIC,> 8 µg/mL
same,MIC,[2]; Aspergillus fumigatus,1 µg/mL
same,MIC,[3]; Aspergillus fumigatus,> 8 µg/mL
same,MIC,[4],0.125 µg/mL
same,MIC,[5]; read-out: MIC,0.25 µg/mL
CN(C/C=C/C#CC(C)(C)C)Cc1cccc2ccccc12 [Terbinafin],MIC,[1],1 µg/mL
same,MIC,[2]; [6],2 µg/mL
same,MIC,[3]; [7],4 µg/mL
same,MIC,[4],2 µg/mL
same,MIC,[5],>16 µg/mL
C[C@@H](c1ncncc1F)[C@](O)(Cn1cncn1)c1ccc(F)cc1F [Voriconazol],MIC,[1]; read-out: MIC,4 µg/mL
same,MIC,[2]; Aspergillus fumigatus,> 16 µg/mL
same,MIC,[3]; Aspergillus fumigatus,4 µg/mL
same,MIC,"[4]; ATCC204305, read-out: MIC",0.5 µg/mL
same,MIC,[5]; read-out: MIC,0.25 µg/mL

# — patent US12427166B2, “Antifungal agent” (priority 2015, dated 2025)
